In US20050069907A1, “Methods for using double-mutant RNA polymerases with reduced discrimination between non-canonical and canonical nucleoside triphosphates” (priority 2002, published 2005):

How the values were obtained:
[1] = test system: RNA as a template; conditions: cited from earlier work
[2] = test system: Bgl II-cut pPK5; assay: Run-off transcription with 2′-OMe- or 2′-azido-NTPs on Bgl II-cut pPK5; assay type: biochemical
Method: (§1) RNAPs were prepared as described (Brieba, L G, and Sousa, R. Biochemistry, 39: 919-923, 2000). Transcription reactions were carried out for 30 min. at room temperature in 40 mM Tris-Cl, pH 8.0, 6 mM MgCl2, 10 mM NaCl, 2 mM spermidine, with templates at 10^−7 M and RNAPs at 2×10^−7 M. All NTPs were used at 0.5 mM, and transcripts were labeled by inclusion of 1% v/v 800 Ci/mM […] in the reaction. Modified NTPs were from Trilink Biotechnologies. Reactions were stopped by addition of an equal volume of 90% formamide, 50 mM EDTA, 0.01% xylene cyanol, resolved by electrophoresis in 20% acrylamide, 1% bis-acrylamide, 1×TBE gels, and visualized on a Molecular Dynamics Phosphorimager.
The ability of the wild-type, Y639F and Y639F/H784A mutants to utilize 2′-OMe-UTP and 2′-OMe-CTP, and 2′-azido-UTP and 2′-azido-CTP in RNA synthesis was tested. On a Bgl II-cut pPK5 (Mentesanas, P. E., et al., “Characterization of Bacteriophage T7 RNA Polymerase Elongation Complexes,” J. Mol. Biol. 302:1049-1062, 2000) template in which CTP and UTP are first incorporated at +14 and +15, respectively, the wild-type enzyme can synthesize 34 nucleotide (nt) run-off transcripts in reactions in which UTP is replaced with 2′-OMe-UTP (FIG. 2a, lane 2) or in reactions in which CTP is replaced with 2′-OMe-CTP (FIG. 2a, lane 3). Relative to the reaction with 4 NTPs (FIG. 2a, lane 1), yields of run-off transcripts are reduced 6-fold and 21-fold in the 2′-OMe-UTP and 2′-OMe-CTP reactions, respectively. When both UTP and CTP are replaced with the corresponding 2′-OMe-NTPs, run-off transcription with the wild-type enzyme is undetectable (FIG. 2a, lane 4). Terminated transcripts are seen in these reactions at positions where 2′-OMe-UMP or 2′-OMe-CMP are incorporated (FIG. 2a, lanes 2-4). The Y639F mutation enhances utilization of the 2′-OMe-NTPs: relative to reactions with 4 NTPs (FIG. 2a, lane 5) runoff transcription with Y639F is reduced, respectively: 2-fold, 8-fold, and 55-fold in reactions with 2′-OMe-UTP, 2′-OMe-CTP, or both (FIG. 2a, lanes 6-8). With the Y639F/H784A double mutant the reduction in run-off transcript synthesis is <15% in reactions with 2′-OMe-UTP (FIG. 2a, lane 10), and only 3-fold and 6-fold in reactions with, respectively, 2′-OMe-CTP or both 2′-OMe-UTP and 2′-OMe-CTP (FIG. 2a, lanes 11, 12).
Identical experiments were carried out with 2′-azido-UTP or 2′-azido-CTP replacing UTP or CTP, respectively (FIG. 2b). With the wild-type enzyme, run-off transcription was reduced 15- and 50-fold in reactions with 2′-azido-UTP or 2′-azido-CTP, respectively (FIG. 2b; lanes 2, 3), and was undetectable in reactions with both 2′-azido-UTP and 2′-azido-CTP (FIG. 2b; lane 4). With Y639F, use of 2′-azido-UTP or 2′-azido-CTP reduced run-off transcription by 70% (FIG. 2b; lanes 6, 7) compared to reactions with 4 NTPs (FIG. 2b; lane 5), while use of both 2′-azido-UTP and 2′-azido-CTP reduced runoff transcription by 11-fold (FIG. 2b, lane 8). With Y639F/H784A use of a single azido-modified NTP reduced run-off transcription by only 40% (FIG. 2b; lanes 10, 11), while use of two 2′-azido-NTPs reduced it by 3-fold (FIG. 2b; lane 12).

[3] = test system: HindIII-cut pT75; assay: Run-off transcription with 2′-OMe- or 2′-azido-NTPs on HindIII-cut pT75; assay type: biochemical
Method: as §1
With the pPK5 template, UMP and CMP are not incorporated into the first 9 nt of RNA. Incorporation of non-canonical NMPs during synthesis of the first 9 nt of RNA is expected to cause greater reductions in run-off transcript synthesis because the RNA is readily released from the transcription complex during this initial phase of transcription. Therefore, if incorporation of a non-canonical NMP is slow, the RNA will usually dissociate before the NMP is incorporated. […] To see whether NMPs with bulky 2′-substituents could be incorporated during the initial phase of transcription a Hind-III linearized pT75 (Tabor, S. and Richardson, C. C., “A bacteriophage T7 RNA polymerase/promoter system for controlled exclusive expression of specific genes,” Proc. Natl. Acad. Sci. USA 82:1074-1078, 1985) was used. On this template, UMP is first incorporated at +14 while CMP is incorporated at +6 and +7. In reactions with 2′-OMe-UTP run-off transcript synthesis is reduced 11-fold, 5-fold, and <2-fold with the wild-type, and the Y639F, and Y639F/H784A mutants, respectively (FIG. 2c; lanes 2, 6, 10). However, in reactions with 2′-OMe-CTP run-off transcription is undetectable with the wild-type or Y639F enzymes (FIG. 2c; lanes 3, 4, 7, 8), and is reduced ˜700-fold with Y639F/H784A (FIG. 2c; lanes 11, 12).
Run-off transcript yields in reactions with HindIII-cut pT75 and 2′-azido-UTP are reduced 18-, 8.5-, and <2-fold with wild-type and Y639F and Y639F/H784 mutants, respectively (FIG. 2d; lanes 2, 6, 10), relative to reactions with 4 NTPs (FIG. 2d; lanes 1, 5, 9). In reactions with 2′-azido-CTP, or both 2′-azido-CTP and 2′-azido-UTP, run-off transcription is undetectable with the wild-type enzyme (FIG. 2d; lanes 3, 4), is reduced 65-fold with Y639F (FIG. 2d; lanes 7, 8), but is reduced only 7-fold with Y639F/H784A (FIG. 2d; lanes 11, 12).

[4] = test system: T7 Control Template; assay: Incorporation of Cy5-UTP or Cy5-dCTP into transcripts (A650/A260); assay type: biochemical; conditions: FluoroLink Cy5-UTP or Cy5-dCTP in addition to UTP or CTP
Method: In separate experiments to evaluate the ability of the Y639F/H784A double mutant versus the Y639F single mutant of T7 RNAP to incorporate nucleoside triphosphates with substituents at other positions than the 2′-position of the sugar, in vitro transcription reactions are carried out with each mutant enzyme using a T7 Control Template from an AmpliScribe™ T7 High Yield Transcription Kit (EPICENTRE) and either FluoroLink™ Cy5-UTP or FluoroLink™ Cy5-dCTP (both from Amersham Biosciences) in the reaction mixture in addition to the corresponding canonical nucleotide, UTP or CTP. Following transcription, the product is precipitated with ammonium acetate and the relative amount of Cy5 dye in the transcripts are determined based on the A650/A260 absorption ratios.

[5] = even in Mn^2+ buffer; cited from earlier work

Molecule: E. coli DNA-directed DNA polymerase I: E. coli DNA polymerase I
- Increase in dNTP Km [1]: ~100 fold

Molecule: Y639F/H784A: Y639F/H784A double mutant of T7 RNAP
- Reduction of run-off transcript yield relative to 4 NTPs ([2]; 2′-OMe-CTP replacing CTP): 3 fold
- Reduction in run-off transcript synthesis ([2]; 2′-OMe-UTP replacing UTP): < 15%
- Reduction of run-off transcript yield relative to 4 NTPs ([2]; both 2′-OMe-UTP and 2′-OMe-CTP): 6 fold
- Reduction of run-off transcription ([2]; both 2′-azido-UTP and 2′-azido-CTP): 3 fold
- Reduction of run-off transcription ([2]; single azido-modified NTP (2′-azido-UTP or 2′-azido-CTP)): 40%
- Reduction of run-off transcription ([3]; 2′-OMe-CTP): ~700 fold
- Reduction of run-off transcript synthesis ([3]; 2′-OMe-UTP): < 2 fold
- Reduction of run-off transcription ([3]; 2′-azido-CTP, or both 2′-azido-CTP and 2′-azido-UTP): 7 fold
- Reduction of run-off transcript yields relative to 4 NTPs ([3]; 2′-azido-UTP): < 2 fold
- A650/A260 absorption ratio of transcription products compared to Y639F single mutant [4]: significantly higher

B1: T7 DNAP: T7 DNA polymerase (protein, UniProt P00581 1-704, looked up)
DNA-directed DNA polymerase: MIVSDIEANALLESVTKFHCGVIYDYSTAEYVSYRPSDFGAYLDALEAEVARGGLIVFHNGHKYDVPALTKLAKLQLNREFHLPRENCIDTLVLSRLIHSNLKDTDMGLLRSGKLPGKRFGSHALEAWGYRLGEMKGEYKDDFKRMLEEQGEEYVDGMEWWNFNEEMMDYNVQDVVVTKALLEKLLSDKHYFPPEIDFTDVGYTTFWSESLEAVDIEHRAAWLLAKQERNGFPFDTKAIEELYVELAARRSELLRKLTETFGSWYQPKGGTEMFCHPRTGKPLPKYPRIKTPKVGGIFKKPKNKAQREGREPCELDTREYVAGAPYTPVEHVVFNPSSRDHIQKKLQEAGWVPTKYTDKGAPVVDDEVLEGVRVDDPEKQAAIDLIKEYLMIQKRIGQSAEGDKAWLRYVAEDGKIHGSVNPNGAVTGRATHAFPNLAQIPGVRSPYGEQCRAAFGAEHHLDGITGKPWVQAGIDASGLELRCLAHFMARFDNGEYAHEILNGDIHTKNQIAAELPTRDNAKTFIYGFLYGAGDEKIGQIVGAGKERGKELKKKFLENTPAIAALRESIQQTLVESSQWVAGEQQVKWKRRWIKGLDGRKVHVRSPHAALNTLLQSAGALICKLWIIKTEEMLVEKGLKHGWDGDFAYMAWVHDEIQVGCRTEEIAQVVIETAQEAMRWVGDHWNFRCLLDTEGKMGPNWAICH
- Selectivity for dNTPs over rNTPs [5]: at least 2,000 fold
